For test [1], the target named is 72 kDa type IV collagenase (Homo sapiens, UniProt P08253). As to the kind of experiment: Inhibition of recombinant human MMP2 preincubated for 30 mins followed by McaPro-Leu-Gly-Leu-Dpa-Ala-Arg-NH2 substrate addition measured by fluorescence assay.
In test [2] the test system is MGC-803. Kind of test: Cytotoxicity against human MGC803 cells assessed as reduction in cell viability after 48 hrs by MTT assay. It is filed as functional, cell-based. The settings on record: MGC-803, 48 h. (Tetrazolium dyes change colour on reduction, which living cells bring about.)
The test system of test [3] is HepG2. Kind of test: Cytotoxicity against human HepG2 cells assessed as reduction in cell viability after 48 hrs by MTT assay. The settings on record: HepG2, 48 h. It is filed as functional, cell-based.
The subject of test [4] is A549. As to the kind of experiment: Cytotoxicity against human A549 cells assessed as reduction in cell viability after 48 hrs by MTT assay. It is filed as functional, cell-based. The settings on record: A549, 48 h.
Test [5] deals with T-24. Kind of test: Cytotoxicity against human T24 cells assessed as reduction in cell viability after 48 hrs by MTT assay. It is filed as functional, cell-based. The settings on record: T-24, 48 h.
For test [6], the target named is Stromelysin-1 (Homo sapiens, UniProt P08254). Kind of test: Inhibition of recombinant human MMP3 preincubated for 30 mins followed by McaPro-Leu-Gly-Leu-Dpa-Ala-Arg-NH2 substrate addition measured by fluorescence assay.
The target in test [7] is T1, Matrix metalloproteinase-9 (Homo sapiens, UniProt P14780). As to the kind of experiment: Inhibition of recombinant human MMP9 preincubated for 30 mins followed by McaPro-Leu-Gly-Leu-Dpa-Ala-Arg-NH2 substrate addition measured by fluorescence assay.
The test system of test [8] is A549. Kind of test: Antimigratory activity against human A549 cells assessed as inhibition of wound healing at 10 to 20 uM after 24 hrs by phase contrast microscopic method. It is filed as functional, cell-based.
Test [9] addresses T1, Matrix metalloproteinase-9. As to the kind of experiment: Binding affinity to MMP9 (unknown origin) by SPR assay. (In SPR one partner is held on a chip, and binding of the other changes the refractive index at the surface.)
The test system of test [10] is A549. Kind of test: Induction of apoptosis in human A549 cells assessed as live cells at 10 uM after 24 hrs by Annexin V-FITC/propidium iodide staining based flow cytometry (reference value: 91.9%). It is filed as functional. A general note: In flow cytometry, cells or beads pass a laser one at a time.
Test [11] deals with A549. As to the kind of experiment: Induction of apoptosis in human A549 cells assessed as live cells at 20 uM after 24 hrs by Annexin V-FITC/propidium iodide staining based flow cytometry (reference value: 91.9%). It is filed as functional.
The test system of test [12] is A549. Kind of test: Induction of apoptosis in human A549 cells assessed as live cells at 40 uM after 24 hrs by Annexin V-FITC/propidium iodide staining based flow cytometry (reference value: 91.9%). It is filed as functional.
The test system of test [13] is A549. Kind of test: Induction of apoptosis in human A549 cells assessed as early apoptotic cells at 10 uM after 24 hrs by Annexin V-FITC/propidium iodide staining based flow cytometry (reference value: 1.2%). It is filed as functional.
Test [14] relates to A549. Kind of test: Induction of apoptosis in human A549 cells assessed as early apoptotic cells at 20 uM after 24 hrs by Annexin V-FITC/propidium iodide staining based flow cytometry (reference value: 1.2%). It is filed as functional.
Test [15] relates to A549. As to the kind of experiment: Induction of apoptosis in human A549 cells assessed as early apoptotic cells at 40 uM after 24 hrs by Annexin V-FITC/propidium iodide staining based flow cytometry (reference value: 1.2%). It is filed as functional.
Test [16] has as its system A549. Kind of test: Induction of apoptosis in human A549 cells assessed as late apoptotic cells at 10 uM after 24 hrs by Annexin V-FITC/propidium iodide staining based flow cytometry (reference value: 2.8%). It is filed as functional.
Test [17] has as its system A549. Kind of test: Induction of apoptosis in human A549 cells assessed as late apoptotic cells at 20 uM after 24 hrs by Annexin V-FITC/propidium iodide staining based flow cytometry (reference value: 2.8%). It is filed as functional.
For test [18], the system named is A549. Kind of test: Induction of apoptosis in human A549 cells assessed as late apoptotic cells at 40 uM after 24 hrs by Annexin V-FITC/propidium iodide staining based flow cytometry (reference value: 2.8%). It is filed as functional.
For test [19], the system named is A549. Kind of test: Induction of apoptosis in human A549 cells after 24 hrs by Annexin V-FITC/propidium iodide staining based flow cytometry. It is filed as functional, cell-based.
Test [20] relates to A549. Kind of test: Induction of apoptosis in human A549 cells at 10 to 40 uM after 24 hrs by acridine orange/ethidium bromide double staining based fluorescence microscopic method. It is filed as functional, cell-based.
The subject of test [21] is A549. Kind of test: Induction of apoptosis in human A549 cells assessed as increase in caspase-3 level after 24 hrs by Western blot method. It is filed as functional, cell-based.
Test [22] concerns A549. As to the kind of experiment: Induction of apoptosis in human A549 cells assessed as increase in caspase-9 level at 10 to 40 uM after 24 hrs by Western blot method. It is filed as functional, cell-based.
Test [23] has as its system A549. Kind of test: Induction of apoptosis in human A549 cells assessed as increase in Bax level after 24 hrs by Western blot method. It is filed as functional, cell-based.
For test [24], the system named is A549. Kind of test: Induction of apoptosis in human A549 cells assessed as decrease in Bcl-2 level at 10 to 40 uM after 24 hrs by Western blot method. It is filed as functional, cell-based.

We go through 13 molecules from ChEMBL document CHEMBL4190401, “Lung cancer and matrix metalloproteinases inhibitors of polyphenols from Selaginella tamariscina with suppression activity of migration” (Bioorg Med Chem Lett, 2018).

One may read the IC50 as the concentration at which inhibition is half-maximal. For orientation: Kd means the free concentration of one partner at which half of the binding sites on the other are occupied at equilibrium, for simple one-to-one binding.

Each structure is given as a SMILES string. Calls of active or inactive are those of the source. No cut-off for these calls is given here. Where only a bound is given, the exact number is not on record here.

Stromelysin-1, sequence (P08254 whole entry): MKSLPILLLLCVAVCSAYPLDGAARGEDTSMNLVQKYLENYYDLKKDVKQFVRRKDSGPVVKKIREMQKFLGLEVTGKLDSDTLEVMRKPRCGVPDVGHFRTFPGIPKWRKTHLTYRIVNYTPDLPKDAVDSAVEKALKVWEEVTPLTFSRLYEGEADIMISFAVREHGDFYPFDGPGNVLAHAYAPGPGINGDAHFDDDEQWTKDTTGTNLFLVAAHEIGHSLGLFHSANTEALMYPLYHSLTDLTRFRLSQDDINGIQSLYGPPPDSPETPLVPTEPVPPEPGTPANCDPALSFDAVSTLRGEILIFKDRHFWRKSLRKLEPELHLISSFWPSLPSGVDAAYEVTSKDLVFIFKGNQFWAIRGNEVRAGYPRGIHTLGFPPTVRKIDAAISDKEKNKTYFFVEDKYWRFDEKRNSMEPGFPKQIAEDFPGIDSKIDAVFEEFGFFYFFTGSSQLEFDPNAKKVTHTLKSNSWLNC
72 kDa type IV collagenase, sequence (P08253 whole entry): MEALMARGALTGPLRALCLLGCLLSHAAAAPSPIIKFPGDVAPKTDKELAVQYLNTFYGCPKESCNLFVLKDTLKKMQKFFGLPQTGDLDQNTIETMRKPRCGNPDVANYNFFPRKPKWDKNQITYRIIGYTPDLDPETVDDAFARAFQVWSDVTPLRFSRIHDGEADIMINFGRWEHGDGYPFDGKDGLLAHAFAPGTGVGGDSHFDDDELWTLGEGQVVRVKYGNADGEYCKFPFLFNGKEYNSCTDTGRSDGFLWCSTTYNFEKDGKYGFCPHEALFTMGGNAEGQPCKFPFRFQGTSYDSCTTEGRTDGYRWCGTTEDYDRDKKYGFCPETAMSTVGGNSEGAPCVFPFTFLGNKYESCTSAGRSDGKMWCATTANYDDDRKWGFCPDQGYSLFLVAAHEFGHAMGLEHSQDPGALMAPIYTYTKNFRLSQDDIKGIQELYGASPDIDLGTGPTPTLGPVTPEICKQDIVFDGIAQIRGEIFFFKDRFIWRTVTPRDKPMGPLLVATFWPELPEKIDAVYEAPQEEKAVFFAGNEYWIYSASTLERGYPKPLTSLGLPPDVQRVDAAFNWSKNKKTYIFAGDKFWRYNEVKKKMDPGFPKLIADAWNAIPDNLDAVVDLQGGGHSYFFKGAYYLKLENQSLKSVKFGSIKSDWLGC
T1 sequence (P14780 whole entry): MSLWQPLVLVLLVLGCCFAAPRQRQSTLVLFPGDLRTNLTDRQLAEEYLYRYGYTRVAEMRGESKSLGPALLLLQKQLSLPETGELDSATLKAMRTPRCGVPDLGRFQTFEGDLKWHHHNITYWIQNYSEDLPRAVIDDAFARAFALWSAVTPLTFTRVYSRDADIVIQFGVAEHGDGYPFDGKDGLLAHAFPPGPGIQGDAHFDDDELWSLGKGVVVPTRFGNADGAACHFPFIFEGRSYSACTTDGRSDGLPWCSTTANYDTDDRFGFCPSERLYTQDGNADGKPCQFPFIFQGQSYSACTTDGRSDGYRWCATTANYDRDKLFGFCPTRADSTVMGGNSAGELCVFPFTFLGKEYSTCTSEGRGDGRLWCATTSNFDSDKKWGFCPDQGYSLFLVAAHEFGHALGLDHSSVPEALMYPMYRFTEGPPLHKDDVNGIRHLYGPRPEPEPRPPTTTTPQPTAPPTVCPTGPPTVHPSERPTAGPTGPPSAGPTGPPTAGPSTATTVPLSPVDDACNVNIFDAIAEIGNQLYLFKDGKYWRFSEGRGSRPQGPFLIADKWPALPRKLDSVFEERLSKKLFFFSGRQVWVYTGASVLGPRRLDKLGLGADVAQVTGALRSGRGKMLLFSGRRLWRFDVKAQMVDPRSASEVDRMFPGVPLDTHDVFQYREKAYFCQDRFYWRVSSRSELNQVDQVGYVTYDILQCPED

For the molecule `COc1ccc(C2CC(=O)c3c(O)cc(O)cc3O2)cc1-c1c(O)cc(O)c2c(=O)cc(-c3ccc(O)cc3)oc12` (stereo not given), the IC50 in test [1] came to 45.8 µM; in test [2], 36.5 µM; in test [3] it was 35 µM; in test [4] it was 31.2 µM; in test [5], 34.9 µM; in test [6] (read-out: IC50), 74.3 µM. In test [7], the IC50 came to 29.3 µM.
As to `O=c1cc(-c2ccc(O)c(-c3c(O)cc4oc(-c5ccc(O)cc5)cc(=O)c4c3O)c2)oc2cc(O)cc(O)c12` [ROBUSTAFLAVONE], the half-maximal inhibitory concentration (IC50) in test [1] was 10.2 µM; in test [2], 15.6 µM; in [3], 19.2 µM; in test [4] it was 21.4 µM; in test [5], 21.1 µM; in [6], “Not Active”. Also, the IC50 in test [7] amounted to 11.8 µM.
Turning to `O=c1cc(-c2ccc(O)c(-c3c(O)cc(O)c4c(=O)cc(-c5ccc(O)cc5)oc34)c2)oc2cc(O)cc(O)c12` [AMENTOFLAVONE], the IC50 was 30.3 µM in [1]; 9.86 µM in [2]; 9.13 µM in test [3]; 8.36 µM in test [4]; 10.7 µM in test [5]; > 100 µM in test [6] (read-out: IC50). Moreover, in [7], the 50% inhibitory concentration (IC50) was determined as 2.58 µM. The outcome in test [8], in test [20], in [22] and in [24] was Active. The same molecule yielded a Kd in test [9] of 2.18 µM. Further, the Activity in test [10] came to 86%; in test [11], 59%; in test [12], 57.2%; in test [13], 2.5%; in test [14] it was 9.5%; in test [15] it was 6.4%. In addition, the Activity was 7.9% in test [16]; 28.3% in test [17]; 34.3% in test [18]; “Dose-dependent effect” in [19]; “Dose-dependent effect” in test [21]; “Dose-dependent effect” in test [23].
As for `COc1ccc(-c2cc(=O)c3c(O)cc(O)cc3o2)cc1-c1c(O)cc(O)c2c(=O)cc(-c3ccc(O)cc3)oc12` [BILOBETIN], the IC50 in test [1] was > 100 µM; in test [2], > 50 µM; in test [3], > 50 µM; in test [4], > 50 µM; in test [5], > 50 µM; in test [6] (read-out: IC50), > 100 µM. In addition, in [7], the IC50 is 10.3 µM.
Take `CC[C@@]1(O)C(=O)OCc2c1cc1n(c2=O)Cc2cc3cc(O)ccc3nc2-1` [HYDROXYCAMPTOTHECIN]: the 50% inhibitory concentration (IC50) in [2] was 6.55 µM; in [3] it was 3.19 µM; in test [4], 1.75 µM; in [5], 11.8 µM.
On to `COc1ccc(-c2cc(=O)c3c(O)cc(O)cc3o2)cc1-c1c(O)cc2oc(-c3ccc(O)cc3)cc(=O)c2c1O`, for which the IC50 is > 100 µM in [1]; 21.8 µM in [2]; 26.6 µM in test [3]; 25.6 µM in test [4]; 25.8 µM in [5]; 37.3 µM in test [6] (read-out: IC50). Besides, the IC50 in test [7] turned out to be 26.1 µM.
As for `COc1ccc(C2CC(=O)c3c(O)cc(O)cc3O2)cc1-c1c(O)cc2c(c1O)C(=O)CC(c1ccc(O)cc1)O2` (stereo not given), the half-inhibitory concentration (IC50) in test [1] is 35.7 µM; in [2], 26 µM; in [3], 28.2 µM; in [4] it was 27.7 µM; in test [5], 27.4 µM; in [6], “Not Active”. Also, the IC50 in [7] worked out at 25.4 µM.
As for `O=C1OCc2ccc(-c3ccc(O)cc3)c(C(=O)c3ccc(O)cc3)c21`, the IC50 was found to be 81.2 µM in test [1]; 26.4 µM in [2]; 24.8 µM in test [3]; 21.9 µM in test [4]; 23.4 µM in test [5]; 40.9 µM in [6] (read-out: IC50). Further, the IC50 in [7] stood at 36 µM.
As for `O=C(c1ccc(O)cc1)c1cc(-c2ccc(O)cc2)c(-c2ccc(O)cc2)c(-c2ccc(O)cc2)c1`, the IC50 in [1] is 54.2 µM; in [2], > 50 µM; in test [3], > 50 µM; in test [4], > 50 µM; in test [5] it was > 50 µM; in test [6] (read-out: IC50) it was 66.1 µM. Also, the half-inhibitory concentration (IC50) in test [7] was > 100 µM.
Consider `O=C(O)c1c(-c2ccc(O)cc2)ccc(CO)c1C#Cc1ccc(O)cc1`, for which the concentration for half-maximal inhibition (IC50) in test [1] came out at 85.3 µM; in test [2] it was 32.6 µM; in test [3], 30.2 µM; in test [4], 34.1 µM; in [5], 37.1 µM; in test [6] (read-out: IC50) it was 82.6 µM. Moreover, in test [7], the IC50 came out at 41 µM.
Consider `COc1ccc(-c2cc(=O)c3c(O)cc(O)cc3o2)cc1-c1c(O)cc2c(c1O)C(=O)CC(c1ccc(O)cc1)O2` (stereo not given), for which the IC50 in [1] was > 100 µM; in test [2] it was > 50 µM; in [3], > 50 µM; in test [4], > 50 µM; in test [5] it was > 50 µM; in test [6] it was “Not Active”. The IC50 in [7] was determined as 37.4 µM.
For the molecule `O=C1OC(c2ccc(O)cc2)(c2ccc(O)cc2)c2c(-c3ccc(O)cc3)ccc(CO)c21`, the half-inhibitory concentration (IC50) in [1] stood at 53.7 µM; in test [2] it was 13.8 µM; in [3] it was 15.4 µM; in [4], 11 µM; in test [5], 12.7 µM; in test [6] (read-out: IC50), 87.8 µM. Moreover, the concentration for half-maximal inhibition (IC50) in test [7] is 18.3 µM.
On to `O=C(/C=C(\c1ccccc1)c1c(-c2ccc(O)cc2)cccc1-c1ccc(O)cc1)c1ccc(O)cc1`, for which the IC50 in test [1] was > 100 µM; in test [2], > 50 µM; in [3] it was > 50 µM; in test [4], > 50 µM; in [5], > 50 µM; in test [6] (read-out: IC50), > 100 µM. Further, in [7], the IC50 is 24.7 µM.
